In PMC8945811 (2022):

Experiments:
poly rA (RNA, polymer) A = assay: competition dialysis; conditions: Na-cacodylate, I = 0.05 M; pH 7, 1 mM EDTA, 25 °C, 24 h; 5 μM compound; bound amount only in figure
[1] = tested on: poly dA-poly rU (DNA:RNA, polymer) A/U; assay: fluorescence titration, Scatchard; conditions: Na-cacodylate; pH 7.0, 1 mM EDTA, 25 °C; per phosphate; table footnote says I = 0.05 M; per base
[2] = tested on: poly dA-poly dT (DNA, polymer) A/T; assay: CD titration; conditions: Na-cacodylate, I = 0.05 M; pH 7.0, 1 mM EDTA; 30 μM polynucleotide, r = 0.3; bisignate ICD, minor-groove dimers
[3] = tested on: poly dA-poly rU (DNA:RNA, polymer) A/U; assay: UV melting of four-polynucleotide mixture, 260 nm; conditions: Na-cacodylate with NaCl, I = 0.1 M; pH 7.0, 1 mM EDTA; 2 μM compound, 20 μM (bp) each polynucleotide, r = 0.025; error ±0.5; per base
[4] = tested on: ATT triplex (poly dA-2poly dT) (DNA, polymer) A/T/T; assay: UV melting, 260 nm; conditions: Na-cacodylate with NaCl, I = 0.1 M, pH 7.0, 1 mM EDTA, r = 0.1, error ±0.5, per base
[5] = tested on: poly rA-poly rU (RNA, polymer) A/U; assay: CD titration; conditions: Na-cacodylate, I = 0.05 M, 30 μM polynucleotide
[6] = tested on: poly rA-poly rU (RNA, polymer) A/U; assay: UV melting of four-polynucleotide mixture, 260 nm; conditions: Na-cacodylate with NaCl, I = 0.1 M; pH 7.0, 1 mM EDTA; 2 μM compound, 20 μM (bp) each polynucleotide, r = 0.025; error ±0.5; per base
[7] = tested on: ATT 26mer triplex (DNA, triplex) AAAAAAAAAAAAAAAAAAAAAAAAAA/TTTTTTTTTTTTTTTTTTTTTTTTTT/TTTTTTTTTTTTTTTTTTTTTTTTTT; assay: fluorescence titration, Scatchard; conditions: Na-cacodylate, I = 0.05 M; pH 7.0, 1 mM EDTA, 25 °C; per phosphate; per base
[8] = tested on: poly dA-poly dT (DNA, polymer) A/T; assay: UV melting of four-polynucleotide mixture, 260 nm; conditions: Na-cacodylate with NaCl, I = 0.1 M; pH 7.0, 1 mM EDTA; 2 μM compound, 20 μM (bp) each polynucleotide, r = 0.025; error ±0.5; per base
[9] = tested on: ATT triplex (poly dA-2poly dT) (DNA, polymer) A/T/T; assay: fluorescence titration, Scatchard; conditions: Na-cacodylate, I = 0.05 M; pH 7.0, 1 mM EDTA, 25 °C; per phosphate; per base
[10] = tested on: poly rA-poly dT (DNA:RNA, polymer) A/T; assay: UV melting of four-polynucleotide mixture, 260 nm; conditions: Na-cacodylate with NaCl, I = 0.1 M; pH 7.0, 1 mM EDTA; 2 μM compound, 20 μM (bp) each polynucleotide, r = 0.025; error ±0.5; per base
poly dT (DNA, polymer) T = assay: competition dialysis; conditions: Na-cacodylate, I = 0.05 M; pH 7, 1 mM EDTA, 25 °C, 24 h; 5 μM compound; bound amount only in figure
[11] = tested on: poly rA-poly dT (DNA:RNA, polymer) A/T; assay: ITC; conditions: Na-cacodylate, I = 0.05 M; pH 7.0, 1 mM EDTA, 25 °C; one-site fit; per base
[12] = tested on: ATT triplex (poly dA-2poly dT) (DNA, polymer) A/T/T; assay: ITC; conditions: Na-cacodylate, I = 0.05 M; pH 7.0, 1 mM EDTA, 25 °C; site with n 0.1 of two-site fit (other site 6.5, n 0.7); per base
[13] = third-strand transition (duplex transition 0)

| binding (poly rA (RNA, polymer) A) | log Ks [1] | binding [2] | ΔTm [3] | ΔTm [4, 13] | binding ([5]; pH 7.0, 1 mM EDTA, r = 0.3, negative ICD, intercalation) | ΔTm [6] | log Ks [7] | ΔTm [8] | log Ks [9] | ΔTm [10] | ΔTm ([4]; third-strand transition (duplex transition 21.9)) | binding (poly dT (DNA, polymer) T) | log Ks [11] | log Ks [12] | binding ([5]; pH 7.0, bisignate ICD, major-groove dimers) | Compound |
| --- | --- | --- | --- | --- | --- | --- | --- | --- | --- | --- | --- | --- | --- | --- | --- | --- |
| yes | 8.0 | yes | 5.5 °C | 43.7 °C | yes | 0 °C | 7.4 | 0 °C | 7.6 |  |  |  |  |  |  | Clc1c(-c2nc3ccc(C4=NCCN4)cc3s2)sc2ccccc12 |
| yes |  |  | 5.6 °C |  |  | 2.2 °C |  | 19.1 °C |  | 1.7 °C | 31.7 °C | yes | 7.8 | 8.7 |  | c1cc2nc(-c3cncc(-c4nc5ccc(C6=NCCN6)cc5s4)c3)sc2cc1C1=NCCN1 |
|  |  |  |  | 27.3 °C |  |  |  | 2.1 °C |  | 1.7 °C |  |  |  |  | yes | c1csc(-c2ccc(-c3nc4ccc(C5=NCCN5)cc4s3)s2)c1 |
